From patent US20080095834A1, “Mitochondriotropic Phospholipid Vesicles” (priority 2005, published 2008)

System: COLO205 colon cancer cells
Experiment: Apoptotic DNA laddering, DNA gel separation analysis
Format: cell-based
Conditions: 18 hrs, ceramide 25 μM
Description: FIG. 8 represents a micrograph of DNA gel separation analysis of COLO205 cells incubated with C6 ceramide-loaded mitochondriotropic liposomes according to the invention for 18 hrs, followed by extraction of their DNA. The concentration of ceramide in all samples was 25 μM. Lane A—DNA marker; lane B—untreated control; lane C—ceramide-loaded plain liposomes; lane D—ceramide loaded STPP liposomes according to the invention; lane E—free ceramide. Black arrows indicate the apoptotic DNA ladder. Total amount of DNA was identical in all lanes; and
FIG. 8 represents a micrograph of DNA gel separation analysis of cells of the colon cancer cell line COLO205 incubated with C6 ceramide-loaded mitochondriotropic liposomes according to the invention for 18 hrs, followed by extraction of their DNA. The concentration of ceramide in all samples was 25 μM. Lane A—DNA marker; lane B—untreated control; lane C—ceramide-loaded plain liposomes; lane D—ceramide loaded STPP liposomes according to the invention; lane E—free ceramide. Black arrows indicate the apoptotic DNA ladder. The total amount of DNA was identical in all lanes.

CCCCCCCCCCCCC/C=C/[C@@H](O)[C@H](CO)NC(=O)CCCCC [free ceramide, C6 ceramide]
DNA laddering typical of apoptosis: nor cells treated with free ceramide (Lane E, FIG. 8) showed the DNA laddering typical of apoptosis
